Data: paper PMC4855831, “Cloning, expression and characterization of a β-D-xylosidase from Lactobacillus rossiae DSM 15814^T” (Microbial Cell Factories, 2016)

Target: T1, XylA (β-D-xylosidase, LROS_1108) (Furfurilactobacillus rossiae, UniProt A0A0R1REJ8)
T1 construct: gene FD35_GL000933; host Lactococcus lactis subsp. cremoris NZ9000; crude cell extract; from primers N-terminus MKIQNPVL, C-terminus KELPETK; EC 3.2.1.37
Assay: p-nitrophenol release at […] nm, XylA-containing crude cell extract
Type: biochemical
Conditions: 5 mM pNPX, 50 mM phosphate buffer pH 5.7, 37.5 °C, 10 min

T1 sequence (A0A0R1REJ8 entry or part of it): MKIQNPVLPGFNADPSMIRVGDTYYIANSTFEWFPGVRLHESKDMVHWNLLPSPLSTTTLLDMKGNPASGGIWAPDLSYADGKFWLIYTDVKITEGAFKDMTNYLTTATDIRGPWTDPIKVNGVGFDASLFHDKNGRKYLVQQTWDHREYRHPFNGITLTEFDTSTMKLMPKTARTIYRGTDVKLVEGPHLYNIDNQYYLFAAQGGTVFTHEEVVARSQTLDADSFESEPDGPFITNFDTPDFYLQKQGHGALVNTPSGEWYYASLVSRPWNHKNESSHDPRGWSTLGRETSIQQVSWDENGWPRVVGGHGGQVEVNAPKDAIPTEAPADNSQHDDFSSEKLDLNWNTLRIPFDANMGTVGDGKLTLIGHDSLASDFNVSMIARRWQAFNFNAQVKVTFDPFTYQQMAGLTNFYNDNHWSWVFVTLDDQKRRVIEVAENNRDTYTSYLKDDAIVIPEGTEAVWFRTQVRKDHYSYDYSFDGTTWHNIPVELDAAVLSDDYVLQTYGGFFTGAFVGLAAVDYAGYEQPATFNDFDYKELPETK

## O=[N+]([O-])c1ccc(O[C@@H]2OC[C@@H](O)[C@H](O)[C@H]2O)cc1 [p-nitrophenyl-β-D-xylopyranoside]
  p-nitrophenol release at 410 nm, XylA-containing crude cell extract: amount of p-nitrophenol (pNP) released from p-nitrophenyl-β-D-xylopyranoside (pNPX) substrate
